Converted amounts (≈) assume the structure as drawn.
Test: Antioxidant activity assessed as hydrogen peroxide scavenging activity
Format: physicochemical

Row | SMILES | IC50
1 | Oc1ccc(-c2nnc(S)n2/N=C/c2ccccc2Cl)cc1 | 60 µg/mL (≈ 181 µM)
2 | Oc1ccc(-c2nnc(S)n2/N=C/c2ccccc2)cc1 | 24 µg/mL (≈ 81 µM)
3 | O=[N+]([O-])c1ccccc1/C=N/n1c(S)nnc1-c1ccc(O)cc1 | 32 µg/mL (≈ 93.7 µM)

Now from value to molecule:

Row | IC50 | SMILES
4 | 20 µg/mL (≈ 64 µM) | Oc1ccc(-c2nnc(S)n2/N=C/c2cccc(O)c2)cc1
5 | 38 µg/mL (≈ 111 µM) | O=[N+]([O-])c1cccc(/C=N/n2c(S)nnc2-c2ccc(O)cc2)c1

Source: ChEMBL document CHEMBL3608236, “Understanding the chemistry behind the antioxidant activities of butylated hydroxytoluene (BHT): a review” (Eur J Med Chem, 2015)
